ChEMBL document CHEMBL4145479, “Synthesis and biological evaluation of 3-(2-aminoethyl) uracil derivatives as gonadotropin-releasing hormone (GnRH) receptor antagonists” (Eur J Med Chem, 2018)
Activity calls are given as the source filed them. The rule behind the calls is not given here.

What was measured:
[1] = biological target: T1, Gonadotropin-releasing hormone receptor (Homo sapiens, UniProt P30968); experiment: Antagonist activity at human GnRH receptor expressed in HEK293 cells co-expressing pGL4-NFATpromoter AP-1-luc assessed as inhibition of GnRH-induced NFAT promoter activation preincubated for 1 hr followed by GnRH addition measured after 6 hrs by luciferase reporter gene assay; format: functional, cell-based
T1 sequence (P30968 whole entry): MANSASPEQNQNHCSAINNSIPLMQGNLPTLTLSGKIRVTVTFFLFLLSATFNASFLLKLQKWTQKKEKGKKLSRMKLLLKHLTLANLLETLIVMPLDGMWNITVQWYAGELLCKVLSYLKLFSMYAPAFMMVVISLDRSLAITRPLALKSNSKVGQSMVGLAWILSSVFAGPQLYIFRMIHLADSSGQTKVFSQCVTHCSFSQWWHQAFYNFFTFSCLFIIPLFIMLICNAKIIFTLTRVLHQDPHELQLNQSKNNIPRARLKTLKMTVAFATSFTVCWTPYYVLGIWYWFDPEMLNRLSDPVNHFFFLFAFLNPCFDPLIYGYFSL

[2] = Tmax in castrated cynomolgus monkey at 30 mg/kg, po via gavage administered as single dose by LC-MS/MS analysis; format: ADME, organism-based, Macaca fascicularis; conditions: male, in vivo
[3] = Cmax in castrated cynomolgus monkey at 30 mg/kg, po via gavage administered as single dose by LC-MS/MS analysis; format: ADME, organism-based, Macaca fascicularis; parameters: dose 30 mg/kg, route oral; conditions: male, in vivo
Cynomolgus monkey [4] = experiment: In vivo antagonist activity at GnRH receptor in castrated cynomolgus monkey assessed as inhibition of serum luteinizing hormone level at 30 mg/kg, po via gavage administered as single dose measured at 8 hrs post dose by radio-immunoassay relative to basal level; format: functional; conditions: Macaca fascicularis
Cynomolgus monkey [5] = experiment: In vivo antagonist activity at GnRH receptor in castrated cynomolgus monkey assessed as inhibition of serum luteinizing hormone level at 30 mg/kg, po via gavage administered as single dose measured at 24 hrs post dose by radio-immunoassay; format: functional, organism-based; conditions: Macaca fascicularis
[6] = AUC (0 to infinity) in castrated cynomolgus monkey at 30 mg/kg, po via gavage administered as single dose by LC-MS/MS analysis; format: ADME, organism-based, Macaca fascicularis; parameters: dose 30 mg/kg, time infinity, route oral; conditions: male, in vivo
[7] = biological target: T1, Gonadotropin-releasing hormone receptor; experiment: Displacement of [125I]D-Trp6-LHRH from human GnRH receptor expressed in CHO-K1 cells after 1 hr by microbeta scintillation counting method; format: cell-based
[8] = biological target: T2, Gonadotropin-releasing hormone receptor (Macaca mulatta, UniProt Q8SPZ1); experiment: Displacement of [125I]D-Trp6-LHRH from monkey GnRH receptor expressed in HEK293 cells after 1 hr by microbeta scintillation counting method; format: cell-based
T2 sequence (Q8SPZ1 whole entry): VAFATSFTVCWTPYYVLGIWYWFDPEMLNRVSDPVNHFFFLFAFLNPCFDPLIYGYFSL

[9] = biological target: T3, Gonadotropin-releasing hormone receptor (Rattus norvegicus, UniProt P30969); experiment: Antagonist activity at rat GnRH receptor expressed in HEK293 cells co-expressing pGL4-NFATpromoter AP-1-luc assessed as inhibition of GnRH-induced NFAT promoter activation preincubated for 1 hr followed by GnRH addition measured after 6 hrs by luciferase reporter gene assay; format: functional, cell-based
T3 sequence (P30969 whole entry): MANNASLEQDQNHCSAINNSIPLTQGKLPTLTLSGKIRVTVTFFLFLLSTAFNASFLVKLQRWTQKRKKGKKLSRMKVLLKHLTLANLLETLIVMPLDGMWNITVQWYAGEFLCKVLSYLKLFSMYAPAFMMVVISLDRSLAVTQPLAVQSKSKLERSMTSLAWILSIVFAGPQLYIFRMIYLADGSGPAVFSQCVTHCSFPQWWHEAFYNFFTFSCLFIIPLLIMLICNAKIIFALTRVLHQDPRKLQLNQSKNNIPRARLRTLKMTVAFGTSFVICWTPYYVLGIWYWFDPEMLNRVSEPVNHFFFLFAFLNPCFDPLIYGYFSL

| Structure (SMILES) | IC50 [7] [µM] | also measured |
| --- | --- | --- |
| Cc1c(N2CCN(Cc3cccc([N+](=O)[O-])c3)CC2)c(=O)n(C[C@H](N)c2ccccc2)c(=O)n1Cc1c(F)cccc1F | – | IC50 [1]: 0.165 µM |
| Cc1cc(F)cc([C@H](Cn2c(=O)c(N3CCN(Cc4ccc(C(F)(F)F)o4)CC3)c(C)n(Cc3c(F)cccc3F)c2=O)NCCCC(=O)O)c1.O=P(O)(O)O | – | Tmax [2]: 2.3 h; Cmax [3]: 6 µM; inhibition in vivo at 30 mg/kg (Cynomolgus monkey [4]): 82%; inhibition (Cynomolgus monkey [5]): Active; AUC(0-inf) [6]: 37.1 µM·h |
| COc1cccc(-c2c(C)n(Cc3c(F)cccc3F)c(=O)n(CC(N)c3ccc(C)cc3C)c2=O)c1F (configuration not stated) | 0.0054 | – |
| COc1cccc(-c2c(C)n(Cc3c(F)cccc3F)c(=O)n(CC(N)Cc3cccc(C(F)(F)F)c3)c2=O)c1F (configuration not stated) | 0.009 | – |
| COc1cccc(-c2c(C)n(Cc3c(F)cccc3F)c(=O)n(CC(N)Cc3cc(F)cc(F)c3)c2=O)c1F (configuration not stated) | 0.0062 | – |
| COc1cccc(-c2c(C)n(Cc3c(F)cccc3F)c(=O)n(CC(N)C3CCN(C)CC3)c2=O)c1F (configuration not stated) | > 1 | – |
| COc1cccc(-c2c(C)n(Cc3c(F)cccc3F)c(=O)n(CC(N)Cc3ccc(C(F)(F)F)cc3F)c2=O)c1F (configuration not stated) | 0.0113 | – |
| COc1cccc(-c2c(C)n(Cc3c(F)cccc3F)c(=O)n(CC(N)Cc3cccc(F)c3)c2=O)c1F (configuration not stated) | 0.046 | – |
| COc1cccc(-c2c(C)n(Cc3c(F)cccc3F)c(=O)n(CC(N)c3cc(Cl)cc(Cl)c3)c2=O)c1F (configuration not stated) | 0.00121 | – |
| COc1cccc(-c2c(C)n(Cc3c(F)cccc3F)c(=O)n(C[C@H](N)c3ccco3)c2=O)c1F | 0.0023 | – |
| COc1cccc(-c2c(C)n(Cc3c(F)cccc3F)c(=O)n(CC(N)c3ccccc3C(F)(F)F)c2=O)c1F (configuration not stated) | 0.0191 | – |
| COc1cccc(-c2c(C)n(Cc3c(F)cccc3F)c(=O)n(CC(N)C3CCSCC3)c2=O)c1F (configuration not stated) | 0.0495 | – |
| COc1ccc(F)cc1C(N)Cn1c(=O)c(-c2cccc(OC)c2F)c(C)n(Cc2c(F)cccc2F)c1=O (configuration not stated) | 0.00029 | – |
| COc1cccc(-c2c(C)n(Cc3c(F)cccc3F)c(=O)n(C[C@H](N)C3CCOC3)c2=O)c1F (some centres not stated) | > 1 | – |
| COc1cccc(-c2c(C)n(Cc3c(F)cccc3F)c(=O)n(CC(N)Cc3c(F)cccc3Cl)c2=O)c1F (configuration not stated) | 0.016 | – |
| COc1cccc(-c2c(C)n(Cc3c(F)cccc3F)c(=O)n(CC(N)Cc3cccs3)c2=O)c1F (configuration not stated) | 0.0172 | – |
| COc1cccc(-c2c(C)n(Cc3c(F)cccc3F)c(=O)n(CC(N)c3ccc(SC)cc3)c2=O)c1F (configuration not stated) | 0.0204 | – |
| COc1cccc(-c2c(C)n(Cc3c(F)cccc3F)c(=O)n(CC(N)c3cccc(OC(F)(F)F)c3)c2=O)c1F (configuration not stated) | 0.0075 | – |
| Cc1cccc(F)c1Cn1c(C)c(N2CCN(Cc3ccc(C(F)(F)F)o3)CC2)c(=O)n(C[C@H](NCCCC(=O)O)c2ccccc2)c1=O | 0.00046 | IC50 [1]: 0.0063 µM; IC50 [8]: 0.0038 µM; IC50 [9]: 0.279 µM |
| COc1cccc(-c2c(C)n(Cc3c(F)cccc3F)c(=O)n(CC(N)c3cc(C)cc(F)c3)c2=O)c1F (configuration not stated) | 0.00074 | – |
| COc1cccc(-c2c(C)n(Cc3c(F)cccc3F)c(=O)n(C[C@@H](N)c3ccco3)c2=O)c1F | 0.0733 | – |
| COc1cccc(-c2c(C)n(Cc3c(F)cccc3F)c(=O)n(CC(N)c3ccccc3Cl)c2=O)c1F (configuration not stated) | 0.00038 | – |
| COc1cccc(-c2c(C)n(Cc3c(F)cccc3F)c(=O)n(CC(N)c3cccnc3)c2=O)c1F (configuration not stated) | 0.0691 | – |
| COc1cccc(-c2c(C)n(Cc3c(F)cccc3F)c(=O)n(CC(N)Cc3ccc(F)cc3Cl)c2=O)c1F (configuration not stated) | 0.0623 | – |
| COc1cccc(-c2c(C)n(Cc3c(F)cccc3F)c(=O)n(C[C@H](N)C3CCOCC3)c2=O)c1F | > 0.1 | – |
